Measurements from PubChem BioAssay (NCI).
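48-hour exposure; five concentrations; linearly interpolated endpoints. TGI denotes the concentration required for complete inhibition of growth.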

How the values were obtained:
Assay in all cases: DTP human tumour cell line panel, 48 h
[1] = test system: HOP-18 NSCLC
[2] = test system: NCI-H460 lung
[3] = test system: IGROV1 ovarian
[4] = test system: NCI-H226 lung
[5] = test system: SF-295 CNS
[6] = test system: SR leukemia
[7] = test system: TK-10 renal
[8] = test system: U251 CNS
[9] = test system: SNB-78 CNS
[10] = test system: MOLT-4 leukemia
[11] = test system: ACHN renal
[12] = test system: SK-MEL-28 melanoma
[13] = test system: K-562 leukemia
[14] = test system: HCT-116 colon
[15] = test system: UACC-257 melanoma
[16] = test system: HT29 colon
[17] = test system: LOX IMVI melanoma
[18] = test system: SNB-75 CNS
[19] = test system: KM12 colon
[20] = test system: OVCAR-5 ovarian
[21] = test system: OVCAR-4 ovarian
[22] = test system: RXF 393 renal
[23] = test system: UO-31 renal
[24] = test system: RXF-631 renal
[25] = test system: A549 NSCLC
[26] = test system: DLD-1 colon
[27] = test system: KM20L2 colon
[28] = test system: EKVX NSCLC
[29] = test system: SNB-19 CNS
[30] = test system: SF-268 CNS
[31] = test system: UACC-62 melanoma
[32] = test system: MALME-3M melanoma
[33] = test system: SK-MEL-5 melanoma
[34] = test system: SK-OV-3 ovarian
[35] = test system: OVCAR-8 ovarian
[36] = test system: HOP-92 NSCLC
[37] = test system: M14 melanoma
[38] = test system: SN12C renal
[39] = test system: 786-0 renal
[40] = test system: HCT-15 colon
[41] = test system: SW-620 colon
[42] = test system: HL-60(TB) leukemia
[43] = test system: OVCAR-3 ovarian
[44] = test system: M19-MEL melanoma
[45] = test system: NCI-H522 lung
[46] = test system: SF-539 CNS
[47] = test system: A498 renal
[48] = test system: HCC-2998 colon
[49] = test system: COLO 205 colon
[50] = test system: DMS 273 small cell lung
[51] = test system: CCRF-CEM leukemia
[52] = test system: NCI-H23 lung
[53] = test system: RPMI-8226 leukemia
[54] = test system: CAKI-1 renal
[55] = test system: SK-MEL-2 melanoma
[56] = test system: HOP-62 NSCLC
[57] = test system: LXFL 529 NSCLC
[58] = test system: DMS 114 small cell lung

## O=C1C=C(Nc2ccc(S(=O)(=O)Nc3ncccn3)cc2)c2ccccc2C1=O
[1]
  TGI: 82.6 µM
[2]
  TGI: 42.7 µM
[3]
  TGI: 58 µM
[4]
  TGI: 56.8 µM
[5]
  TGI: 35 µM
[6]
  TGI: 95.9 µM
[7]
  TGI: > 100 µM
[8]
  TGI: 31.5 µM
[9]
  TGI: > 100 µM
[10]
  TGI: > 100 µM
[11]
  TGI: 70.4 µM
[12]
  TGI: 60.6 µM
[13]
  TGI: 49.4 µM
[14]
  TGI: 35.9 µM
[15]
  TGI: 41.7 µM
[16]
  TGI: 45 µM
[17]
  TGI: 30 µM
[18]
  TGI: 59.4 µM
[19]
  TGI: 38.6 µM
[20]
  TGI: 34.4 µM
[21]
  TGI: 38.8 µM
[22]
  TGI: 48 µM
[23]
  TGI: 57.5 µM
[24]
  TGI: 47.3 µM
[25]
  TGI: 57.9 µM
[26]
  TGI: 43.5 µM
[27]
  TGI: 72.9 µM
[28]
  TGI: 67.1 µM
[29]
  TGI: 90.2 µM
[30]
  TGI: 59.7 µM
[31]
  TGI: 32.9 µM
[32]
  TGI: 43.9 µM
[33]
  TGI: 32.9 µM
[34]
  TGI: 90.7 µM
[35]
  TGI: 42.4 µM
[36]
  TGI: 94 µM
[37]
  TGI: 34.1 µM
[38]
  TGI: 35.9 µM
[39]
  TGI: 45.6 µM
[40]
  TGI: 47 µM
[41]
  TGI: 35.1 µM
[42]
  TGI: 72.7 µM
[43]
  TGI: 30.5 µM
[44]
  TGI: 29.3 µM
[45]
  TGI: 32 µM
[46]
  TGI: 58.4 µM
[47]
  TGI: 69.4 µM
[48]
  TGI: 36.6 µM
[49]
  TGI: 39.4 µM
[50]
  TGI: 68.8 µM
[51]
  TGI: > 100 µM
[52]
  TGI: 34.1 µM
[53]
  TGI: 97.2 µM
[54]
  TGI: 89.1 µM
[55]
  TGI: 85.2 µM
[56]
  TGI: 54.6 µM
[57]
  TGI: 56.6 µM

## O=C(NC(=O)c1cn(CCN2CCN(C(=O)NCCCCCCNC(=O)N3CCN(CCn4cc(C(=O)NC(=O)OCc5ccccc5)c(=O)[nH]c4=O)CC3)CC2)c(=O)[nH]c1=O)OCc1ccccc1
[1]
  TGI: > 100 µM
[2]
  TGI: > 100 µM
[3]
  TGI: > 100 µM
[5]
  TGI: > 100 µM
[7]
  TGI: > 100 µM
[8]
  TGI: > 100 µM
[9]
  TGI: > 100 µM
[10]
  TGI: > 100 µM
[11]
  TGI: > 100 µM
[12]
  TGI: > 100 µM
[13]
  TGI: > 100 µM
[14]
  TGI: > 100 µM
[15]
  TGI: > 100 µM
[16]
  TGI: > 100 µM
[17]
  TGI: > 100 µM
[18]
  TGI: > 100 µM
[20]
  TGI: > 100 µM
[21]
  TGI: > 100 µM
[22]
  TGI: > 100 µM
[23]
  TGI: > 100 µM
[24]
  TGI: > 100 µM
[25]
  TGI: > 100 µM
[26]
  TGI: > 100 µM
[27]
  TGI: > 100 µM
[28]
  TGI: > 100 µM
[29]
  TGI: > 100 µM
[31]
  TGI: > 100 µM
[32]
  TGI: > 100 µM
[33]
  TGI: > 100 µM
[34]
  TGI: > 100 µM
[35]
  TGI: > 100 µM
[36]
  TGI: > 100 µM
[37]
  TGI: > 100 µM
[38]
  TGI: > 100 µM
[39]
  TGI: > 100 µM
[40]
  TGI: > 100 µM
[41]
  TGI: > 100 µM
[42]
  TGI: > 100 µM
[43]
  TGI: > 100 µM
[44]
  TGI: > 100 µM
[58]
  TGI: > 100 µM
[46]
  TGI: > 100 µM
[49]
  TGI: > 100 µM
[50]
  TGI: > 100 µM
[51]
  TGI: > 100 µM
[52]
  TGI: > 100 µM
[53]
  TGI: > 100 µM
[54]
  TGI: > 100 µM
[56]
  TGI: > 100 µM
